This is an account of results in patent US20060205808A1, “Anti-inflammatory and cure for ageing, Alzheimer's disease on phloroglucinol derivatives” (Kaohsiung Medical University, priority 2005, published 2006).

Experiment [1] concerns RAW 264.7 macrophage-like cells. Put plainly: NO production (nitrite accumulation, Griess reaction) in RAW 264.7 cells in response to LPS. Type of experiment: cell-based. The note with it: LPS (1 μg mL^−1), 24 h; for IC50: read-out: IC50, accumulation of NO2^− in culture media, RAW 264.7 cells. As for the experimental part: (§1) Treatment of RAW 264.7 macrophage-like cells with LPS (1 μg mL^−1) or N9 microglial cells with LPS (10 ng mL^−1)/IFN-γ (10 U mL^−1) for 24 h induced NO production as assessed by measuring the accumulation of nitrite, a stable metabolite of NO, in the media, based on the Griess reaction. […] 1400 W was used in this experiment as a positive control.

In a further experiment the test system is N9 microglial cells. Description: NO production (nitrite accumulation, Griess reaction) in N9 cells in response to LPS/IFN-γ. Type of experiment: cell-based. Particulars: LPS (10 ng mL^−1)/IFN-γ (10 U mL^−1); for IC50: read-out: IC50, accumulation of NO2^− in culture media, N9 cells. As for the experimental part:
as §1

The subject of experiment [2] is rat neutrophils. Description: release of β-glucuronidase from rat neutrophils stimulated with fMLP/CB. In kind it is cell-based. Particulars: fMLP (1 μM)/CB (5 μg mL^−1); for IC50: means ± s.e.m. (n = 3-5).
Experiment [3] relates to rat neutrophils. Description: fMLP/CB-induced superoxide anion generation in rat neutrophils. Type of experiment: cell-based. As for the experimental part: (§2) FMLP (0.3 μM)/CB (5 μg mL^−1) or phorbol myristate acetate (PMA) (3 nM) stimulated superoxide anion generation in rat neutrophils. […] Trifluoperazine was used in this experiment as a positive control.
The test system of experiment [4] is rat neutrophils. Description: PMA-induced superoxide anion generation in rat neutrophils. Particulars: PMA (3 nM). In kind it is cell-based. Here is the method: as §2
Experiment [5] has as its system rat neutrophils. Description: release of lysozyme from rat neutrophils stimulated with fMLP/CB. In kind it is cell-based. Particulars: fMLP (1 μM)/CB (5 μg mL^−1); for IC50: means ± s.e.m. (n = 3-5).
The test system of experiment [6] is mast cells and neutrophils. Particulars: background statement; cited from earlier work.

In the case of Garcinielliptone I [Compound 4], the “% of inhibition at the highest concentration, NO2^− accumulation, RAW 264.7 cells” value in experiment [1] stood at 17.4 ± 1.5%. For the same compound, the IC50 in experiment [1] is greater than 30 µM; in the experiment with N9 microglial cells (24 h), 7.4 ± 0.2 µM; in the experiment with rat neutrophils [2], greater than 30 µM; in the experiment with rat neutrophils [3] (fMLP (0.3 μM)/CB (5 μg mL^−1)), greater than 30 µM; with rat neutrophils [4], greater than 30 µM; in the experiment with rat neutrophils [5], greater than 30 µM. Moreover, the “effect on production of NO induced by LPS/IFN-γ in N9 cells (in words)” value in the experiment on N9 microglial cells is given as “potent inhibitory effect”. The “% of inhibition at the highest concentration, β-Glucuronidase release” value in the experiment on rat neutrophils [2] (highest concentration) was 15.6 ± 2.7%. Further, in the experiment with rat neutrophils [3] (fMLP (0.3 μM)/CB (5 μg mL^−1), highest concentration), the “% of inhibition at the highest concentration, superoxide anion, fMLP/CB” value is 2.8 ± 5.7%. Besides, in the experiment on rat neutrophils [4], the “% of inhibition at the highest concentration, superoxide anion, PMA” value is listed as −76.3 ± 7.3%. Moreover, the “% of inhibition at the highest concentration, Lysozyme release” value in the experiment with rat neutrophils [5] (highest concentration) is given as −1.6 ± 7.3%.
For the compound `CC(C)=CCC1CC2(CC=C(C)C)C(=O)C(C(=O)C(C)C)(C(=O)C(C=CC(C)(C)O)=C2O)C1(C)C` (centres unmarked) [Compound 1, Garcinielliptone F], in experiment [1], the “% of inhibition at the highest concentration, NO2^− accumulation, RAW 264.7 cells” value was determined as 22.9 ± 2.9%. Also, the IC50 was greater than 10 µM in experiment [1]; greater than 3 µM in the experiment with N9 microglial cells (24 h); 26.9 ± 2.6 µM in the experiment on rat neutrophils [2]; 17 ± 0.9 µM in the experiment on rat neutrophils [3] (fMLP (0.3 μM)/CB (5 μg mL^−1)); greater than 30 µM in the experiment with rat neutrophils [4]; 20 ± 1.3 µM in the experiment with rat neutrophils [5]. Also, in the experiment on N9 microglial cells (24 h, highest concentration), the “% of inhibition at the highest concentration, NO2^− accumulation, N9 cells” value turned out to be 31.2 ± 0.7%. Moreover, the “inhibitory effect on release of β-glucuronidase (in words)” value in the experiment on rat neutrophils [2] is “potent inhibitory effects”. For the same compound, in the experiment on rat neutrophils [3] (fMLP/CB (5 μg mL^−1)), the “inhibitory effect on fMLP/CB-induced superoxide anion generation (in words)” value is “potent inhibitory effect”. Also, the “% of inhibition at the highest concentration, superoxide anion, PMA” value in the experiment on rat neutrophils [4] is given as 46.8 ± 4.5%. Also, the “inhibitory effect on release of lysozyme (in words)” value in the experiment on rat neutrophils [5] is reported as “potent inhibitory effects”.
Turning to `CC(C)=CCC1=C2O[C@H](C(C)(C)O)C[C@@]23C[C@H](CC=C(C)C)C(C)(C)[C@@](C(=O)C(C)C)(C1=O)C3=O` [Garsubellin A], in experiment [6], the “inhibition of chemical mediators release from mast cells and neutrophils (in words)” value was “strongly inhibited”.
On to `CN1CCN(CCCN2c3ccccc3Sc3ccc(C(F)(F)F)cc32)CC1` [Trifluoperazine, reference compound], for which the IC50 in the experiment with rat neutrophils [2] (Neutrophil) amounted to 10.6 ± 0.9 µM; in the experiment on rat neutrophils [3] (Neutrophil, fMLP (0.3 μM)/CB (5 μg mL^−1)), 6.6 ± 0.2 µM; with rat neutrophils [4] (Neutrophil), 2.7 ± 0.6 µM; in the experiment with rat neutrophils [5] (Neutrophil) it was 13.2 ± 0.7 µM.
`CC(=N)NCc1cccc(CN)c1` [Compound 1400W, N-(3-Aminomethyl) benzylacetamidine, reference compound]: the IC50 in experiment [1] stood at 3 ± 0.2 µM; with N9 microglial cells (24 h), 2.2 ± 0.1 µM.
`CC(C)=CC[C@H]1C[C@]2(CC=C(C)C)C(=O)[C@]3(CC=C(C)C)O[C@@]1(C(=O)C(C)C)[C@@]2(O)C(C)(C)C3=O` [garcinielliptin oxide]: the “inhibition of chemical mediators release from mast cells and neutrophils (in words)” value in experiment [6] is given as “strongly inhibited”.

In general, IC50 refers to the concentration at which inhibition is half-maximal.
